Test results taken from patent US20050101595A1, “N-containing cycloalkyl-substituted amino-thiazole derivatives and pharmaceutical compositions for inhibiting cell proliferation and methods for their use” (PFIZER INC., priority 2003, published 2005).

Tests used:
HCT-116 cell line = assay: Inhibition of cell growth, tetrazolium salt (MTT) assay; assay type: cell-based; conditions: HCT-116, Table 4; for HCT-116 % Inhibition at 0.1 μM: 0.1 μM compound; for HCT-116 % Inhibition at 0.25 μM: 0.25 μM compound
Outline: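 Growth inhibition by MTT reduction at 540 nm (0.2 mg/mL, 4 h at 37° C, formazan dissolved in DMSO), normalized to cells given only 0.5% v/v DMSO. HCT-116 cultures in McCoy's 5A were dosed 4 h post-plating and kept three to five days at 37° C, 5% CO2.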

CDK2/Cyclin A = CDK2/Cyclin A (Homo sapiens, UniProt P24941); assay: Inhibition of CDK2/Cyclin A Retinoblastoma Kinase Activity; assay type: biochemical; conditions: 0.03 μM compound; Table 4
Outline: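 Human CDK2, baculovirus/insect-cell expressed, complexed with proteolyzed cyclin A (10 nM or 19 nM CDK2) phosphorylates an Rb fragment with 25 μM [32P/33P]ATP at pH 7.4, 30° C, for 60 or 75 minutes under initial-rate conditions. Filter-captured radioactivity is read by phosphorimager; apparent Ki from competitive-inhibition fits.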

[1] = target: human CDK4 and genetically truncated (1-264) cyclin D3 (Homo sapiens, UniProt P11802); assay: Inhibition of CDK4/Cyclin D Retinoblastoma Kinase Activity; assay type: biochemical; conditions: 0.03 μM compound; Table 4
Outline: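 Read-out: 32P/33P incorporation into Rb fragment (386-928) captured on nitrocellulose, phosphorimager. Enzyme 5 nM CDK4/cyclin D3(1-264) from insect cells; ATP 25 μM, pH 7.4, 30 °C, 20 min (60 min for tight binders). Ki from competitive fits.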

Sequence of human CDK4 and genetically truncated (1-264) cyclin D3 (P11802 whole entry, the tested form may be a part): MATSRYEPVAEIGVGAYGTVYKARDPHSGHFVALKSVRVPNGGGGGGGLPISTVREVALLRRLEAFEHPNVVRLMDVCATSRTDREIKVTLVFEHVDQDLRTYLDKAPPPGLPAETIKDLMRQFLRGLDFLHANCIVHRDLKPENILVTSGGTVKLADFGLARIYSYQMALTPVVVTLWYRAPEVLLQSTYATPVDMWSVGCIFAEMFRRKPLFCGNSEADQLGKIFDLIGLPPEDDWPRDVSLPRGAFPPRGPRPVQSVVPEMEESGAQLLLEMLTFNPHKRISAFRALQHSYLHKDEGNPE
Sequence of human CDK4 and genetically truncated (1-264) cyclin D3 (P30281 1-264 partner): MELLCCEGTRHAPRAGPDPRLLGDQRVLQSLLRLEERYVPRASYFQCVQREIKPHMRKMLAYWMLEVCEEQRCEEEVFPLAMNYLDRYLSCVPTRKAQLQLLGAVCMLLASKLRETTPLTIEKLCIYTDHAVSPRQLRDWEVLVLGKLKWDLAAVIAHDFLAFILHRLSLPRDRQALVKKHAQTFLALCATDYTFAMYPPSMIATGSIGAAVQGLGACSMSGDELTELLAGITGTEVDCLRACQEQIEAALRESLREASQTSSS

| SMILES | HCT-116 % Inhibition at 0.1 μM (HCT-116 cell line) [%] | HCT-116 % Inhibition at 0.25 μM (HCT-116 cell line) [%] | CDK2 % Inhibition at 0.03 μM (CDK2/Cyclin A) [%] | CDK4 % Inhibition at 0.03 μM [1] [%] |
| --- | --- | --- | --- | --- |
| Nc1nc(NC2CCN(C(=O)c3ccc(-c4ccccc4)cc3)CC2)sc1C(=O)c1c(F)cccc1F [Example Q32] | 13 | 54 | −11 | 15 |
| Nc1nc(NC2CCN(C(=O)c3ccc(C(F)(F)F)cc3)CC2)sc1C(=O)c1c(F)cccc1F [Example Q33] | 0 | 16 | 23 | 65 |
| CC(C)(C)c1ccc(C(=O)N2CCC(Nc3nc(N)c(C(=O)c4c(F)cccc4F)s3)CC2)cc1 [Example Q34] | 1 | 27 | 28 | 56 |
| Cc1ccc(C(=O)N2CCC(Nc3nc(N)c(C(=O)c4c(F)cccc4F)s3)CC2)cc1 [Example Q35] | 3 | 21 | 35 | 64 |
| CCCCc1ccc(C(=O)N2CCC(Nc3nc(N)c(C(=O)c4c(F)cccc4F)s3)CC2)cc1 [Example Q36] | 0.49 | 31 | 16 | 45 |
| CCCCCc1ccc(C(=O)N2CCC(Nc3nc(N)c(C(=O)c4c(F)cccc4F)s3)CC2)cc1 [Example Q37] | 0 | 31 | 12 | 45 |
| COC(=O)C(=O)N1CCC(Nc2nc(N)c(C(=O)c3c(F)cccc3F)s2)CC1 [Example Q38] | 0 | 21 | −12 | 16 |
| CCOC(=O)C(=O)N1CCC(Nc2nc(N)c(C(=O)c3c(F)cccc3F)s2)CC1 [Example Q39] | 0 | 25 | −13 | 17 |
| CC(=O)OC(C(=O)N1CCC(Nc2nc(N)c(C(=O)c3c(F)cccc3F)s2)CC1)c1ccccc1 (stereo not shown) [Example Q40] | 0 | 20 | −5 | 7 |
| Nc1nc(NC2CCN(C(=O)COc3ccccc3)CC2)sc1C(=O)c1c(F)cccc1F [Example Q41] | 3 | 15 | 24 | 36 |
| COCC(=O)N1CCC(Nc2nc(N)c(C(=O)c3c(F)cccc3F)s2)CC1 [Example Q42] | 3 | 30 | −4 | 20 |
| Nc1nc(NC2CCN(C(=O)Cc3ccccc3)CC2)sc1C(=O)c1c(F)cccc1F [Example Q43] | 0 | 24 | 16 | 30 |
| CC(C)=CC(=O)N1CCC(Nc2nc(N)c(C(=O)c3c(F)cccc3F)s2)CC1 [Example Q44] | 0 | 30 | −19 | 17 |
